Data: patent EP1375483A1, “6-CHLORO-3-PYRIDYLMETHYLPROPYLAMINE DERIVATIVES, PREPARATION PROCESS THEREOF AND BACTERICIDES” (KUREHA KAGAKU KOGYO KABUSHIKI KAISHA, priority 2001, dated 2001)
Read-outs that look alike come from different tables or passages of the source.

Columns and labels:
Pyrenophora graminea = experiment: Antifungal activity test against various pathogenic fungi, hypha extension on PDA plates (Test Example 3); type: cell-based; details: 12.5 ppm in PDA culture medium, cultured 1 to 7 days, read-out: Growth Inhibition P.g (12.5)
wheat powdery mildew [1] = experiment: Test of control effect on wheat powdery mildew (Test Example 1); type: in vivo; details: wettable powder 125 mg/l, 100 liters/10 a, sprinkled on wheat seedlings (Nourin 64) before inoculation, examined 9th to 14th day after inoculation; for pest or weed control at 125 µg/mL: Triticum aestivum
Procedure: Wettable powders were prepared from compounds of the present invention I-1 to I-27 and comparative compounds (a) to (d) , (m-1) and (m-3). The obtained wettable powder was diluted and suspended with water to provide the predetermined concentration (125 mg/l), and was sprinkled onto seedlings of wheat (variety: "Nourin 64") at the first to the second leaf period which were cultivated using square plastic pots (size: 6.4 cm x 6.4 cm) in a rate of 100 liters/10 a (ares). After drying the sprinkled leaves with air, a suspension of wheat powdery mildew spores taken from infected leaves was inoculated by spraying onto the sprinkled leaves. They were supervised in a green house (temperature: 20 to 24°C, relative humidity: 20 to 70 RH). On the 9th to 14th day after the inoculation, the infection degree was examined according to the following scale and the control value of each compound was calculated by the following calculation equation 1. [table] (Equation 1) Control value = (1 - infection degree of treated zone/infection degree of untreated zone) x 100 (%) [formula] The control values of each compound are shown in Table 8.

Microdochium nivale = experiment: Antifungal activity test against various pathogenic fungi, hypha extension on PDA plates (Test Example 3); type: cell-based; details: 3.2 ppm in PDA culture medium, cultured 1 to 7 days, read-out: Growth Inhibition M.n (3.2)
Rhynchosporium secalis = experiment: as above; type: cell-based; details: 100 ppm in PDA culture medium, cultured 1 to 7 days, read-out: Growth Inhibition R.s (100)
Pyricularia oryzae = experiment: microbe, parasite or virus in culture; type: cell-based; details: read-out: Growth Inhibition P.o (12.5)
Leptosphaeria nodorum = experiment: Antifungal activity test against various pathogenic fungi, hypha extension on PDA plates (Test Example 3); type: cell-based; details: Parastagonospora nodorum, read-out: Growth Inhibition L.n (0.8)
[2] = tested on: Pseudocercosporella herpotrichoides; experiment: as above; type: cell-based; details: Oculimacula yallundae; Pseudocercosporella herpotrichoides, 25 ppm in PDA culture medium, cultured 1 to 7 days; read-out: Growth Inhibition P.h (25)
cucumber powdery mildew = experiment: Test of control effect on cucumber powdery mildew (Test Example 2); type: in vivo; details: wettable powder 100 mg/l, 100 liters/10 a, sprinkled on cucumbers (Sagamihanpakufushinari) before inoculation, examined 9th to 14th day after inoculation; for pest or weed control at 100 µg/mL: Cucumis sativus
Procedure: The wettable powders formulated by using each of the compounds I-1 to 27 according to the present invention and the comparative compounds (a) to (d), (m-1) and (m-3) were each diluted and suspended with water to a predetermined concentration (100 mg/l), the suspension was sprinkled over the first to the second leaf period cucumbers (variety: "[…]") cultivated by using a square plastic pot (size: 6. 4 cm x 6. 4 cm) in a rate of 100 liters/10 a (ares). After the sprinkled leaves were air-dried, the spores were inoculated over the leaves by sprinkling the same with a brush from an infected leaf, a disease was contracted in a glass house (temperature: 20 to 24°C, relative humidity: 20 to 70 RH). On the 9th to 14th day after the inoculation, the infection degree was examined according to the following scale and the control value of each compound was calculated by the following calculation equation 2: [table] (Equation 2) Control value = (1 - infection degree of treated zone/infection degree of untreated zone) x 100 (%) [formula] The control values of each compound are shown in Table 9.

Botrytis cinerea = experiment: Antifungal activity test against various pathogenic fungi, hypha extension on PDA plates (Test Example 3); type: cell-based; details: for inhibition at 1.6 ppm: read-out: Growth Inhibition B.c (1.6)
Septoria tritici = experiment: as above; type: cell-based; details: Zymoseptoria tritici; Septoria tritici, 100 ppm in PDA culture medium, cultured 1 to 7 days; read-out: Growth Inhibition S.t (100)
wheat powdery mildew [3] = experiment: Permeable mobility fungicidal effect test in leaf section of wheat powdery mildew (Test Example 4); type: in vivo
Procedure: In the test example 4, permeable mobility fungicidal effect test was performedon the leaf section of wheat powdery mildew with regard to the compounds I-1 to 27 according to the present invention and the comparative compounds (a) to (d), and (m-1) to (m-3) with the method described later. The compound in the form of a wettable powder obtained by Formulation 2 or the like was diluted and suspended with water to a predetermined concentration (200mg/l), and 0.5 µl of the suspension was applied to a 2 to 3 cm leaf portion from the root of the three leaves of the 4th to 4.5th leaf period wheat (variety: Abukumawase) cultured by using a square plastic pot (size: 6.4 cm x 6.4 cm). After these wheat leaves were subject to still standing in a glass house (temperature: 20 to 24C, relative humidity: 20 to 70 RH) for one day, the spores of wheat powdery mildew were inoculated over the leaves by sprinkling the same with a brush from an infected leaf, a disease was contracted in the same glass house. The length of a non-contracted area generated from the applied portion to the direction of the leaf top was measured, and a relative mobility to the compound (m-2) was calculated with the following calculation […] by using the comparative compound (m-2) as a standard compound. (Equation 4) Relative mobility = (Length of non-contracted area in each chemical section (cm)/Length of non-contracted area of compound (m-2) (cm)) [formula]

Venturia inaequalis = experiment: Antifungal activity test against various pathogenic fungi, hypha extension on PDA plates (Test Example 3); type: cell-based; details: 3.2 ppm in PDA culture medium, cultured 1 to 7 days, read-out: Growth Inhibition V.i (3.2)
[4] = Leptosphaeria nodorum, 0.8 ppm in PDA culture medium, cultured 1 to 7 days
[5] = 1.6 ppm in PDA culture medium, cultured 1 to 7 days
[6] = length of non-contracted area relative to compound (m-2), 0.5 µl of 200 mg/l suspension applied to wheat leaf (Abukumawase), inoculated after one day

Compound: CC(Cc1cc(F)c(OC(F)(F)F)c(F)c1)CN(C)Cc1ccc(Cl)nc1 (centres unmarked) [Compound I-20, 6-chloro-N-[3-(3,5-difluoro-4-trifluoromethoxyphenyl)-2-methylpropyl]-N-methyl-3-pyridylmethylamine]
- inhibition at 12.5 ppm (Pyrenophora graminea): 70 to 90%
- pest or weed control at 125 µg/mL (wheat powdery mildew [1]): 100%
- inhibition at 3.2 ppm (Microdochium nivale): 70 to 90%
- inhibition at 100 ppm (Rhynchosporium secalis): 70 to 90%
- inhibition at 12.5 ppm (Pyricularia oryzae): 70 to 90%
- inhibition at 0.8 ppm (Leptosphaeria nodorum; [4]): > 90%
- inhibition at 25 ppm [2]: > 90%
- pest or weed control at 100 µg/mL (cucumber powdery mildew): 100%
- inhibition at 1.6 ppm (Botrytis cinerea; [5]): > 90%
- inhibition at 100 ppm (Septoria tritici): 70 to 90%
- Relative Mobility (wheat powdery mildew [3]; [6]): 9
- inhibition at 3.2 ppm (Venturia inaequalis): 70 to 90%

Compound: CC(Cc1ccc2c(c1)OCO2)CN(C)Cc1ccc(Cl)nc1 (centres unmarked) [(d), 6-chloro-N-[2-methyl-3-(3,4-methylenedioxyphenyl)propyl]-N-methyl-3-pyridylmethylamine]
- pest or weed control at 125 µg/mL (wheat powdery mildew [1]): 10%
- pest or weed control at 100 µg/mL (cucumber powdery mildew): 0%
- inhibition at 1.6 ppm (Botrytis cinerea; [5]): < 20%
- Relative Mobility (wheat powdery mildew [3]; [6]): 1

Compound: CC(Cc1cccc(OC(F)(F)F)c1)CN(C)Cc1ccc(Cl)nc1 (centres unmarked) [(b), 6-chloro-N-methyl-[2-methyl-3-(3-trifluoromethoxyphenyl)propyl]-3-pyridylmethylamine]
- pest or weed control at 125 µg/mL (wheat powdery mildew [1]): 80%
- pest or weed control at 100 µg/mL (cucumber powdery mildew): 60%
- inhibition at 1.6 ppm (Botrytis cinerea; [5]): 40 to 70%
- Relative Mobility (wheat powdery mildew [3]; [6]): 3

Compound: CC(Cc1cc(F)cc(Cl)c1)CN(C)Cc1ccc(Cl)nc1 (centres unmarked) [Compound I-21, 6-chloro-N-[3-(3-chloro-5-fluorophenyl)-2-methylpropyl] -N-methyl-3-pyridylmethylamine]
- inhibition at 12.5 ppm (Pyrenophora graminea): > 90%
- pest or weed control at 125 µg/mL (wheat powdery mildew [1]): 100%
- inhibition at 3.2 ppm (Microdochium nivale): 70 to 90%
- inhibition at 100 ppm (Rhynchosporium secalis): > 90%
- inhibition at 12.5 ppm (Pyricularia oryzae): 70 to 90%
- inhibition at 0.8 ppm (Leptosphaeria nodorum; [4]): > 90%
- inhibition at 25 ppm [2]: > 90%
- pest or weed control at 100 µg/mL (cucumber powdery mildew): 100%
- inhibition at 1.6 ppm (Botrytis cinerea; [5]): > 90%
- inhibition at 100 ppm (Septoria tritici): 70 to 90%
- Relative Mobility (wheat powdery mildew [3]; [6]): 9
- inhibition at 3.2 ppm (Venturia inaequalis): 70 to 90%

Compound: CC(Cc1ccc(C(C)(C)C)cc1)CN(C)Cc1ccc(Cl)nc1 (centres unmarked) [(m-2), N-[3-(4-t-butylphenyl)-2-methylpropyl]-6-chloro-N-methy 1-3-pyridylmethylamine]
- Relative Mobility (wheat powdery mildew [3]; [6]): 1

Compound: COc1cccc(CC(C)CN(C)Cc2ccc(Cl)nc2)c1 (centres unmarked) [(m-3), 6-chloro-N-[3-(3-methoxyphenyl)-2-methylpropyl]-N-methy 1-3-pyridylmethylamine]
- Control Value (wheat powdery mildew [1]): 0%
- Control Value (cucumber powdery mildew): 0%
- Growth Inhibition B.c (1.6) (Botrytis cinerea; [5]): 1 (Hypha extension inhibition rate of less than 20%)
- Relative Mobility (wheat powdery mildew [3]; [6]): 1

Compound: CC(Cc1cccc(C(F)(F)F)c1)CN(C)Cc1ccc(Cl)nc1 (centres unmarked) [(a), 6-chloro-N-methyl-[2-methyl-3-(3-trifluoromethylphenyl)propyl]-3-pyridylmethylamine]
- pest or weed control at 125 µg/mL (wheat powdery mildew [1]): 70%
- pest or weed control at 100 µg/mL (cucumber powdery mildew): 50%
- inhibition at 1.6 ppm (Botrytis cinerea; [5]): 20 to 40%
- Relative Mobility (wheat powdery mildew [3]; [6]): 1

Compound: CC(Cc1cccc(Cl)c1)CN(C)Cc1ccc(Cl)nc1 (centres unmarked) [(c-3), 6-chloro-N-[3-(3-chlorophenyl)-2-methylpropyl]-N-methyl-3-pyridylmethylamine]
- pest or weed control at 125 µg/mL (wheat powdery mildew [1]): 50%
- pest or weed control at 100 µg/mL (cucumber powdery mildew): 0%
- inhibition at 1.6 ppm (Botrytis cinerea; [5]): 20 to 40%
- Relative Mobility (wheat powdery mildew [3]; [6]): 1

Compound: CC(Cc1ccc(C(F)(F)F)c(F)c1)CN(C)Cc1ccc(Cl)nc1 (centres unmarked) [Compound I-9, 6-chloro-N-[3-(3-fluoro-4-trifluoromethylphenyl)-2-methylpropyl]-N-methyl-3-pyridylmethylamine]
- pest or weed control at 125 µg/mL (wheat powdery mildew [1]): 100%
- pest or weed control at 100 µg/mL (cucumber powdery mildew): 100%
- inhibition at 1.6 ppm (Botrytis cinerea; [5]): 70 to 90%
- inhibition at 100 ppm (Septoria tritici): 70 to 90%
- Relative Mobility (wheat powdery mildew [3]; [6]): 3

Compound: CC(Cc1cccc(Cl)c1Cl)CN(C)Cc1ccc(Cl)nc1 (centres unmarked) [(c-1), 6-chloro-N-[3-(2,3-dichlorophenyl)-2-methylpropyl]-N-me thyl-3-pyridylmethylamine]
- pest or weed control at 125 µg/mL (wheat powdery mildew [1]): 40%
- pest or weed control at 100 µg/mL (cucumber powdery mildew): 0%
- inhibition at 1.6 ppm (Botrytis cinerea; [5]): 20 to 40%
- Relative Mobility (wheat powdery mildew [3]; [6]): 1

Compound: CC(Cc1ccc(F)c(OC(F)(F)F)c1)CN(C)Cc1ccc(Cl)nc1 (centres unmarked) [Compound I-16]
- Control Value (wheat powdery mildew [1]): 100%
- inhibition at 0.8 ppm (Leptosphaeria nodorum): > 90%
- Control Value (cucumber powdery mildew): 100%
- inhibition at 1.6 ppm (Botrytis cinerea): 70 to 90%
- Relative Mobility (wheat powdery mildew [3]; 24 h, 200 ug/mL): 9

Compound: CC(Cc1cccc(F)c1)CN(C)Cc1ccc(Cl)nc1 (centres unmarked) [(c-4), 6-chloro-N-[3-(3-fluorophenyl)-2-methylpropyl]-N-methyl-3-pyridylmethylamine, reference compound]
- inhibition at 12.5 ppm (Pyrenophora graminea): 20 to 40%
- pest or weed control at 125 µg/mL (wheat powdery mildew [1]): 10%
- inhibition at 3.2 ppm (Microdochium nivale): 20 to 40%
- inhibition at 100 ppm (Rhynchosporium secalis): 20 to 40%
- inhibition at 12.5 ppm (Pyricularia oryzae): 40 to 70%
- inhibition at 0.8 ppm (Leptosphaeria nodorum; [4]): 40 to 70%
- pest or weed control at 100 µg/mL (cucumber powdery mildew): 0%
- inhibition at 1.6 ppm (Botrytis cinerea; [5]): < 20%
- Relative Mobility (wheat powdery mildew [3]; [6]): 1
- inhibition at 3.2 ppm (Venturia inaequalis): 20 to 40%

Compound: Cc1ccc(CC(C)CN(C)Cc2ccc(Cl)nc2)cc1C (centres unmarked) [(m-1), 6-chloro-N-[3-(3,4-dimethylphenyl)-2-methylpropyl]-N-me thyl-3-pyridylmethylamine]
- pest or weed control at 125 µg/mL (wheat powdery mildew [1]): 10%
- pest or weed control at 100 µg/mL (cucumber powdery mildew): 10%
- inhibition at 1.6 ppm (Botrytis cinerea; [5]): 20 to 40%
- Relative Mobility (wheat powdery mildew [3]; [6]): 1

Compound: CC(Cc1ccccc1Cl)CN(C)Cc1ccc(Cl)nc1 (centres unmarked) [(c-2), 6-chloro-N-[3-(2-chlorophenyl)-2-methylpropyl]-N-methyl-3-pyridylmethylamine, reference compound]
- inhibition at 12.5 ppm (Pyrenophora graminea): 20 to 40%
- pest or weed control at 125 µg/mL (wheat powdery mildew [1]): 40%
- inhibition at 3.2 ppm (Microdochium nivale): 20 to 40%
- inhibition at 100 ppm (Rhynchosporium secalis): 20 to 40%
- inhibition at 12.5 ppm (Pyricularia oryzae): 40 to 70%
- inhibition at 0.8 ppm (Leptosphaeria nodorum; [4]): 40 to 70%
- pest or weed control at 100 µg/mL (cucumber powdery mildew): 0%
- inhibition at 1.6 ppm (Botrytis cinerea; [5]): 20 to 40%
- Relative Mobility (wheat powdery mildew [3]; [6]): 1
- inhibition at 3.2 ppm (Venturia inaequalis): 20 to 40%
